From US12545685B2 (Daiichi Sankyo Company, Limited, priority 2011, dated 2026)

Target: T1, Mdm2/p53 binding (GST-Mdm2 / His-p53) (Homo sapiens, UniProt Q00987, L33E)
T1 construct: Mdm2 partial protein having Mdm2 amino acids at positions 25 to 108
Assay: Mdm2/p53 binding assay (HTRF, His-p53 and GST-Mdm2)
Conditions: His-p53 (aa 1-132) and GST-Mdm2 (aa 25-108, L33E) 6.25 nM each; 25°C, 1 hour; values given as ranges
Method: A protein dilution containing 6.25 nM each of His-p53 (fusion protein of a p53 partial protein having p53 amino acids at positions 1 to 132, with a histidine protein) and GST-Mdm2 (fusion protein of an Mdm2 partial protein having Mdm2 amino acids at positions 25 to 108 with leucine residue 33 substituted by glutamic acid, with glutathione transferase) proteins was prepared using a protein buffer solution (20 mM HEPES pH 7.4, 150 mM NaCl, 0.1% BSA). This protein dilution was added in an amount of 8 μl/well to a 384-well plate (384-well low volume NBC, Corning Inc., catalog No: 3676).
Next, a test compound was diluted with DMSO to produce a protein buffer solution containing 10% dilution, and this buffer solution was added in an amount of 4 μl/well to the plate.
Subsequently, a solution containing an XL665-labeled anti-His antibody (HTRF monoclonal anti-6HIS antibody labeled with XL665 (catalog No: 61HISXLB), Schering/Cisbio Bioassays) and a europium (Eu)-labeled anti-GST antibody (HTRF monoclonal anti-GST antibody labeled with europium cryptate, Schering/Cisbio Bioassays, catalog No: 61GSTKLB) at concentrations of 2.5 μg/ml and 0.325 μg/ml, respectively, was prepared using an antibody diluting buffer solution (20 mM HEPES pH 7.4, 150 mM NaCl, 0.1% BSA, 0.5 M KF). These dilutions were added in an amount of 8 μl/well (total reaction solution volume: 20 μl/well). Then the plate was incubated at 25° ° C. for 1 hour.
Time-resolved fluorescence at 620 and 665 nm was measured at an excitation wavelength of 320 nm using a plate reader (ARVOsx, PerkinElmer Co., Ltd. or PHERAstar, BMG LABTECH). Ratio (R) was calculated using the measured values (RFU 620 nm and RFU 665 nm) according to the following formula: […]
BI: measured value at 665 nm of reaction solution (only each buffer solution) nonsupplemented with each protein, the compound, and the antibodies
A and D: each measured value at 665 nm and 620 nm of reaction solution supplemented with only Eu-labeled anti-GST antibody solution
The R value calculated from the well supplemented with His-p53, GST-Mdm2, the test compound, and each antibody was defined as R (sample). The R value calculated from the well supplemented with His-p53, GST-Mdm2, and each antibody but without the test compound was defined as R (control). The R value calculated from the well supplemented with GST-Mdm2 the test compound, and each antibody but without His-p53 was defined as R (background). T/C was calculated from the formula shown below. An IC50 value for Mdm2/p53 binding was calculated by sigmoid fitting.

T1 sequence (Q00987 25-108 L33E): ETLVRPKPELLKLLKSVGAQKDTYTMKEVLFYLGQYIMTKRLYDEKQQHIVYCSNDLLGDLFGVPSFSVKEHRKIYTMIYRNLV

Row | IC50 | Structure (SMILES)
1 | 50 to 100 nM | CC1(C)CCC2(CC1)N[C@@H](C(=O)N[C@@H]1CC[C@@H](c3ncon3)OC1)[C@H](c1ccnc(Cl)c1)[C@]21C(=O)Nc2cc(Cl)ccc21 [Example 63, (3′R,4′R,5′R)-6″-chloro-4′-(2-chloropyridin-4-yl)-4,4-dimethyl-N-[(3R,6S)-6-(1,2,4-oxadiazol-3-yl)tetrahydro-2H-pyran-3-yl]-2″-oxo-1″,2″-dihydrodispiro[cyclohexane-1,2′-pyrrolidine-3′,3″-indole]-5′-carboxamide]
2 | 50 to 100 nM | CC1(C)CCC2(CC1)N[C@@H](C(=O)N[C@@H]1CC[C@@H](c3ncon3)OC1)[C@H](c1ccnc(Cl)c1F)[C@]21C(=O)Nc2cc(Cl)ccc21 [Example 64, (3′R, 4′S,5′R)-6″-chloro-4′-(2-chloro-3-fluoropyridin-4-yl)-4,4-dimethyl-N-[(3R,6S)-6-(1,2,4-oxadiazol-3-yl)tetrahydro-2H-pyran-3-yl]-2″-oxo-1″,2″-dihydrodispiro[cyclohexane-1,2′-pyrrolidine-3′,3″-indole]-5′-carboxamide]
3 | 1 to 50 nM | CC1(C)CCC2(CC1)N[C@@H](C(=O)N[C@@H]1CC[C@@H](c3n[nH]c(=O)o3)OC1)[C@H](c1ccnc(Cl)c1F)[C@]21C(=O)Nc2nc(Cl)ccc21 [Example 65, (3′R, 4′S,5′R)-6″-chloro-4′-(2-chloro-3-fluoropyridin-4-yl)-4,4-dimethyl-2″-oxo-N-[(3R,6S)-6-(5-oxo-4,5-dihydro-1,3,4-oxadiazol-2-yl)tetrahydro-2H-pyran-3-yl]-1″,2″-dihydrodispiro[cyclohexane-1,2′-pyrrolidine-3′,3″-pyrrolo[2,3-b]pyridine]-5′-carboxamide]
4 | 50 to 100 nM | CC1(C)CCC2(CC1)N[C@@H](C(=O)N[C@@H]1CC[C@@H](c3ncon3)OC1)[C@H](c1ccnc(Cl)c1F)[C@]21C(=O)Nc2nc(Cl)ccc21 [Example 66, (3′R, 4′S,5′R)-6″-chloro-4′-(2-chloro-3-fluoropyridin-4-yl)-4,4-dimethyl-N-[(3R,6S)-6-(1,2,4-oxadiazol-3-yl)tetrahydro-2H-pyran-3-yl]-2″-oxo-1″,2″-dihydrodispiro[cyclohexane-1,2′-pyrrolidine-3′,3″-pyrrolo[2,3-b]pyridine]-5′-carboxamide]
5 | 1 to 50 nM | CO[C@@H]1C[C@@H](NC(=O)[C@@H]2NC3(CCC(C)(C)CC3)[C@@]3(C(=O)Nc4nc(Cl)ccc43)[C@H]2c2cccc(Cl)c2F)CO[C@@H]1CO [Example 68, (3′R, 4′S,5′R)-6″-chloro-4′-(3-chloro-2-fluorophenyl)-N-[(3R,5R,6R)-6-(hydroxymethyl)-5-methoxytetrahydro-2H-pyran-3-yl]-4,4-dimethyl-2″-oxo-1″,2″-dihydrodispiro[cyclohexane-1,2′-pyrrolidine-3′,3″-pyrrolo[2,3-b]pyridine]-5′-carboxamide]
6 | 1 to 50 nM | CC1(C)CCC2(CC1)N[C@@H](C(=O)N[C@@H]1CC[C@@H](C(N)=O)OC1)[C@H](c1ccnc(Cl)c1F)[C@]21C(=O)Nc2nc(Cl)ccc21 [Example 71, (3′R, 4′S, S′R)—N-[(3R,6S)-6-carbamoyltetrahydro-2H-pyran-3-yl]-6″-chloro-4′-(2-chloro-3-fluoropyridin-4-yl)-4,4-dimethyl-2″-oxo-1″,2″-dihydrodispiro[cyclohexane-1,2′-pyrrolidine-3′,3″-pyrrolo[2,3-b]pyridine]-5′-carboxamide]
7 | 1 to 50 nM | CC1(C)CCC2(CC1)N[C@@H](C(=O)N[C@H]1CC[C@H](N3CC(O)C3)CC1)[C@H](c1ccnc(Cl)c1F)[C@]21C(=O)Nc2cc(Cl)ccc21 [Example 72, (3′R, 4′S,5′R)-6″-chloro-4′-(2-chloro-3-fluoropyridin-4-yl)-N-[trans-4-(3-hydroxyazetidine-1-yl)cyclohexyl]-4,4-dimethyl-2″-oxo-1″,2″-dihydrodispiro[cyclohexane-1,2′-pyrrolidine-3′,3″-indole]-5′-carboxamide]
8 | 50 to 100 nM | CO[C@]1(CO)CC[C@H](NC(=O)[C@@H]2NC3(CCC(C)(C)CC3)[C@@]3(C(=O)Nc4cc(Cl)ccc43)[C@H]2c2cccc(Cl)c2F)CC1 [Example 73, (3′R, 4′S,5′R)-6″-chloro-4′-(3-chloro-2-fluorophenyl)-N-[cis-4-(hydroxymethyl)-4-methoxycyclohexyl]-4,4-dimethyl-2″-oxo-1″,2″-dihydrodispiro[cyclohexane-1,2′-pyrrolidine-3′,3″-indole]-5′-carboxamide]
9 | 50 to 100 nM | CO[C@]1(CO)CC[C@@H](NC(=O)[C@@H]2NC3(CCC(C)(C)CC3)[C@@]3(C(=O)Nc4cc(Cl)ccc43)[C@H]2c2cccc(Cl)c2F)CC1 [Example 74, (3′R, 4′S,5′R)-6″-chloro-4′-(3-chloro-2-fluorophenyl)-N-[trans-4-(hydroxymethyl)-4-methoxycyclohexyl]-4,4-dimethyl-2″-oxo-1″,2″-dihydrodispiro[cyclohexane-1,2′-pyrrolidine-3′,3″-indole]-5′-carboxamide]
10 | 50 to 100 nM | CC1(C)CC2(C1)N[C@@H](C(=O)N[C@@H]1CC[C@@H](CO)OC1)[C@H](c1cccc(Cl)c1F)[C@]21C(=O)Nc2nc(Cl)ccc21 [Example 79, (3′R, 4′S,5′R)-6″-chloro-4′-(3-chloro-2-fluorophenyl)-N-[(3R,6S)-6-(hydroxymethyl)tetrahydro-2H-pyran-3-yl]-3,3-dimethyl-2″-oxo-1″,2″-dihydrodispiro[cyclobutane-1,2′-pyrrolidine-3′,3″-pyrrolo[2,3-b]pyridine]-5′-carboxamide]
11 | 50 to 100 nM | COC[C@]1(O)CC[C@@H](NC(=O)[C@@H]2NC3(CCC(C)(C)CC3)[C@@]3(C(=O)Nc4nc(Cl)ccc43)[C@H]2c2ccnc(Cl)c2F)CC1 [Example 80, (3′R, 4′S,5′R)-6″-chloro-4′-(2-chloro-3-fluoropyridin-4-yl)-N-[cis-4-hydroxy-4-(methoxymethyl)cyclohexyl]-4,4-dimethyl-2″-oxo-1″,2″-dihydrodispiro[cyclohexane-1,2′-pyrrolidine-3′,3″-pyrrol[2,3-b]pyridine]-5′-carboxamide]
12 | 1 to 50 nM | CO[C@]1(CO)CC[C@@H](NC(=O)[C@@H]2NC3(CCC(C)(C)CC3)[C@@]3(C(=O)Nc4nc(Cl)ccc43)[C@H]2c2cccc(Cl)c2F)CC1 [Example 81, (3′R, 4′S,5′R)-6″-chloro-4′-(3-chloro-2-fluorophenyl)-N-[trans-4-(hydroxymethyl)-4-methoxycyclohexyl]-4,4-dimethyl-2″-oxo-1″,2″-dihydrodispiro[cyclohexane-1,2′-pyrrolidine-3′,3″-pyrrolo[2,3-b]pyridine]-5′-carboxamide]
13 | 1 to 50 nM | CO[C@]1(CO)CC[C@@H](NC(=O)[C@@H]2NC3(CCC(C)(C)CC3)[C@@]3(C(=O)Nc4nc(Cl)ccc43)[C@H]2c2ccnc(Cl)c2F)CC1 [Example 82, (3′R, 4′S,5′R)-6″-chloro-4′-(2-chloro-3-fluoropyridin-4-yl)-N-[trans-4-(hydroxymethyl)-4-methoxycyclohexyl]-4,4-dimethyl-2″-oxo-1″,2′-dihydrodispiro[cyclohexane-1,2′-pyrrolidine-3′,3″-pyrrolo[2,3-b]pyridine]-5′-carboxamide]
14 | 1 to 50 nM | CO[C@]1(CO)CC[C@H](NC(=O)[C@@H]2NC3(CCC(C)(C)CC3)[C@@]3(C(=O)Nc4nc(Cl)ccc43)[C@H]2c2ccnc(Cl)c2F)CC1 [Example 83, (3′R, 4′S,5′R)-6″-chloro-4′-(2-chloro-3-fluoropyridin-4-yl)-N-[cis-4-(hydroxymethyl)-4-methoxycyclohexyl]-4,4-dimethyl-2″-oxo-1″,2″-dihydrodispiro[cyclohexane-1,2′-pyrrolidine-3′,3″-pyrrolo[2,3-b]pyridine]-5′-carboxamide]
